Article PMC6630699, “Synthesis and Cytotoxicity Evaluation of DOTA-Conjugates of Ursolic Acid” (Molecules, 2019)
Where a name gives a salt, the structure may show the parent alone.

Tests used:
A375 (melanoma) = test: SRB cytotoxicity assay, A375; type: cell-based, human; settings: for EC50: Homo sapiens, A-375, SRB assay, 72 h of treatment; for Selectivity index SI A375: SI = EC50 (NIH 3T3)/EC50 (A375)
From the text: (§1) Due to cytotoxicity evaluation, the prepared UA-DOTA conjugates were screened in rhodamine B assays employing a series of human tumor cell lines and non-malignant mouse fibroblasts (NIH 3T3).
(§2) The cell lines used are human cancer cell lines: A2780 (ovarian carcinoma), HT29 (colon adenocarcinoma), MCF-7 (breast adenocarcinoma), A375 (melanoma), FaDu (pharynx squamous cell carcinoma) and non-malignant mouse fibroblasts NIH 3T3; all cell lines were obtained from the Department of Oncology (Martin-Luther-University Halle-Wittenberg). Cultures were maintained as monolayers in RPMI 1640 medium with L-glutamine (Capricorn Scientific GmbH, Ebsdorfergrund, Germany) supplemented with 10% heat inactivated fetal bovine serum (Sigma-Aldrich Chemie GmbH, Steinheim, Germany) and penicillin/streptomycin (Capricorn Scientific GmbH, Ebsdorfergrund, Germany) at 37 °C in a humidified atmosphere with 5% CO2.
(§3) The cytotoxicity of the compounds was evaluated using the sulforhodamine-B (Kiton-Red S, ABCR) micro culture colorimetric assay. Cells were seeded into 96-well plates on day 0 at appropriate cell densities to prevent confluence of the cells during the period of experiment. After 24 h, the cells were treated with six different concentrations (1, 3, 7, 12, 20, and 30 µM) minimum. The final concentration of DMSO/DMF never exceeded 0.5%, which was non-toxic to the cells. After a 72-h treatment, the supernatant medium from the 96-well plates was discarded, the cells were fixed with 10% trichloroacetic acid (TCA) and allowed to rest at 4 °C. After 24 h fixation, the cells were washed in a strip washer and dyed with SRB solution (100 µL, 0.4%, in 1% acetic acid) for about 20 min. After dying, the plates were washed four times with 1% acetic acid to remove the excess of the dye and allowed to air-dry overnight. Tris base solution (200 µL, 10 mM) was added to each well and absorbance was measured at λ = 570 nm using a 96 well plate reader (Tecan Spectra, Crailsheim, Germany). The EC50 values were averaged from three independent experiments performed each in triplicate calculated from semi logarithmic dose response curves applying a non-linear 4P Hills-slope equation (GraphPad Prism5; variables top and bottom were set to 100 and 0, respectively).

[1] = tested on: A2780 (ovarian carcinoma); test: SRB cytotoxicity assay, A2780; type: cell-based, human; settings: for EC50: Homo sapiens, A2780, 72 h, SRB assay, 72 h of treatment; for Selectivity index SI A2780: SI = EC50 (NIH 3T3)/EC50 (A2780)
From the text: as §1, §2, §3

[2] = tested on: HT29 (colon adenocarcinoma); test: SRB cytotoxicity assay, HT29; type: cell-based, human; settings: for EC50: Homo sapiens, HT-29, SRB assay, 72 h of treatment; for Selectivity index SI HT29: SI = EC50 (NIH 3T3)/EC50 (HT29)
From the text: as §1, §2, §3

[3] = tested on: FaDu (pharynx squamous cell carcinoma); test: SRB cytotoxicity assay, FaDu; type: cell-based, human; settings: for EC50: Homo sapiens, FaDu, SRB assay, 72 h of treatment; for Selectivity index SI FaDu: SI = EC50 (NIH 3T3)/EC50 (FaDu)
From the text: as §1, §2, §3

[4] = tested on: non-malignant mouse fibroblasts NIH 3T3; test: SRB cytotoxicity assay, NIH 3T3; type: cell-based; settings: NIH3T3, 72 h of treatment
From the text: as §1, §2, §3

[5] = tested on: MCF-7 (breast adenocarcinoma); test: SRB cytotoxicity assay, MCF-7; type: cell-based, human; settings: for EC50: Homo sapiens, MCF7, SRB assay, 72 h of treatment; for Selectivity index SI MCF-7: SI = EC50 (NIH 3T3)/EC50 (MCF-7)
From the text: as §1, §2, §3

human tumor cell lines = test: SRB cytotoxicity assay, statements over the whole cell line panel; type: cell-based; settings: summary over all tumor cell lines
From the text: as §1, §2, §3

Structure (SMILES) | EC50 (A375 (melanoma)) [µM] | Selectivity index SI A375 (A375 (melanoma)) | EC50 [1] [µM] | Selectivity index SI A2780 [1] | EC50 [2] [µM] | Selectivity index SI HT29 [2] | EC50 [3] [µM] | Selectivity index SI FaDu [3] | EC50 [4] [µM] | EC50 [5] [µM] | Selectivity index SI MCF-7 [5] | EC50 (human tumor cell lines) [µM] | melting point
C[C@H]1[C@H](C)CC[C@]2(C(=O)NCCNC(=O)CN3CCN(CC(=O)OC(C)(C)C)CCN(CC(=O)OC(C)(C)C)CCN(CC(=O)OC(C)(C)C)CC3)CC[C@]3(C)C(=CC[C@@H]4[C@@]5(C)CC[C@H](O)C(C)(C)[C@@H]5CC[C@]43C)[C@H]12 [compound 29, Tri-tert-butyl 2,2’,2’’-[10-[2-[2-(3β-hydroxy-urs-12-en-28-oylamino)ethyl]amino-2-oxoethyl]-1,4,7,10-tetraazacyclododecane-1,4,7-triyl]triacetate] | 2 ± 0.3 | 1.15 | 1.6 ± 0.5 | 1.44 | 1.7 ± 0.4 | 1.35 | 2.9 ± 0.4 | 0.79 | 2.3 ± 0.7 | – | – | – | –
C[C@H]1[C@H](C)CC[C@]2(C(=O)O)CC[C@]3(C)C(=CC[C@@H]4[C@@]5(C)CC[C@H](O)C(C)(C)[C@@H]5CC[C@]43C)[C@H]12 [UA, Ursolic acid] | – | – | 11.7 ± 0.6 | 1.12 | 10.6 ± 0.7 | 1.24 | – | – | 13.1 ± 1.1 | 12.7 ± 0.1 | 1.03 | – | –
CC(=O)O[C@H]1CC[C@]2(C)[C@H]3CC=C4[C@@H]5[C@@H](C)[C@H](C)CC[C@]5(C(=O)NCCN5CCN(C(=O)CN6CCN(CC(=O)O)CCN(CC(=O)O)CCN(CC(=O)O)CC6)CC5)CC[C@@]4(C)[C@]3(C)CC[C@H]2C1(C)C [compound 15, 2,2’,2’’-[10-[2-[4-[2-(3β-Acetyloxy-urs-12-en-28-oylamino)ethyl]piperazin-1-yl]-2-oxoethyl]-1,4,7,10-tetraazacyclododecane-1,4,7-triyl]triacetic acid] | > 60 | – | > 60 | – | > 60 | – | > 60 | – | > 60 | > 60 | – | > 60 | 206 to 210 °C (dec.)
O=C(CN1CCNCCN(CC(=O)OCc2ccccc2)CCN(CC(=O)OCc2ccccc2)CC1)OCc1ccccc1 [compound 7, Tribenzyl 2,2’,2’’-(1,4,7,10-tetraazacyclododecane-1,4,7-triyl)triacetate] | 4.7 ± 0.3 | 0.96 | 3.8 ± 0.3 | 1.18 | 2 ± 0.2 | 2.25 | 3.9 ± 0.7 | 1.15 | 4.5 ± 0.3 | 4.1 ± 0.5 | 1.10 | < 5 | –
COc1cccc2c1C(=O)c1c(O)c3c(c(O)c1C2=O)C[C@@](O)(C(=O)CO)C[C@@H]3O[C@H]1C[C@H](N)[C@H](O)[C@H](C)O1 [DRC, doxorubicin hydrochloride, reference compound] | – | – | 0.01 ± 0.01 | 6.00 | 0.9 ± 0.2 | 0.07 | – | – | 0.06 ± 0.03 | 1.1 ± 0.3 | 0.05 | – | –
CC(C)(C)OC(=O)CN1CCNCCN(CC(=O)OC(C)(C)C)CCN(CC(=O)OC(C)(C)C)CC1 [compound 6, Tri-tert-butyl 2,2′,2’’-(1,4,7,10-tetraazacyclododecane-1,4,7-triyl)triacetate] | 12.4 ± 2.7 | 1.40 | 10.5 ± 3 | 1.65 | 8.7 ± 2.7 | 1.99 | 9.5 ± 0.9 | 1.82 | 17.3 ± 0.1 | 11.3 ± 2.3 | 1.53 | 10 to 14 | 180 to 182 °C
CC(=O)O[C@H]1CC[C@]2(C)[C@H]3CC=C4[C@@H]5[C@@H](C)[C@H](C)CC[C@]5(C(=O)NCCN5CCN(C(=O)CN6CCN(CC(=O)OCc7ccccc7)CCN(CC(=O)OCc7ccccc7)CCN(CC(=O)OCc7ccccc7)CC6)CC5)CC[C@@]4(C)[C@]3(C)CC[C@H]2C1(C)C [compound 13, Tribenzyl 2,2’,2’’-[10-[2-[4-[2-(3β-acetyloxy-urs-12-en-28-oylamino)ethyl]piperazin-1-yl]-2-oxoethyl]-1,4,7,10-tetraazacyclododecane-1,4,7-triyl]triacetate] | – | – | 2.1 ± 0.4 | 1.71 | 4 ± 0.4 | 0.90 | 6 ± 0.1 | 0.60 | 3.6 ± 0.5 | 3.3 ± 0.2 | 1.09 | < 6 | 142 to 146 °C
